Data as given in US11040976B2, “Substrate selective inhibitors of insulin-degrading enzyme (IDE) and uses thereof” (President and Fellows of Harvard College, priority 2015, dated 2021).

Tests used:
[1] = target: T1, IDE (R&D), substrate glucagon (Homo sapiens, UniProt P14735); assay: HTRF assay for IDE-mediated degradation of glucagon; type: biochemical; settings: compounds 67 μM, 0° C. for 10 minutes, versus DMSO alone, FIG. 5
T1 construct: recombinant human IDE42-1019 (R&D Systems); purchased R&D
T1 sequence (P14735 42-1019): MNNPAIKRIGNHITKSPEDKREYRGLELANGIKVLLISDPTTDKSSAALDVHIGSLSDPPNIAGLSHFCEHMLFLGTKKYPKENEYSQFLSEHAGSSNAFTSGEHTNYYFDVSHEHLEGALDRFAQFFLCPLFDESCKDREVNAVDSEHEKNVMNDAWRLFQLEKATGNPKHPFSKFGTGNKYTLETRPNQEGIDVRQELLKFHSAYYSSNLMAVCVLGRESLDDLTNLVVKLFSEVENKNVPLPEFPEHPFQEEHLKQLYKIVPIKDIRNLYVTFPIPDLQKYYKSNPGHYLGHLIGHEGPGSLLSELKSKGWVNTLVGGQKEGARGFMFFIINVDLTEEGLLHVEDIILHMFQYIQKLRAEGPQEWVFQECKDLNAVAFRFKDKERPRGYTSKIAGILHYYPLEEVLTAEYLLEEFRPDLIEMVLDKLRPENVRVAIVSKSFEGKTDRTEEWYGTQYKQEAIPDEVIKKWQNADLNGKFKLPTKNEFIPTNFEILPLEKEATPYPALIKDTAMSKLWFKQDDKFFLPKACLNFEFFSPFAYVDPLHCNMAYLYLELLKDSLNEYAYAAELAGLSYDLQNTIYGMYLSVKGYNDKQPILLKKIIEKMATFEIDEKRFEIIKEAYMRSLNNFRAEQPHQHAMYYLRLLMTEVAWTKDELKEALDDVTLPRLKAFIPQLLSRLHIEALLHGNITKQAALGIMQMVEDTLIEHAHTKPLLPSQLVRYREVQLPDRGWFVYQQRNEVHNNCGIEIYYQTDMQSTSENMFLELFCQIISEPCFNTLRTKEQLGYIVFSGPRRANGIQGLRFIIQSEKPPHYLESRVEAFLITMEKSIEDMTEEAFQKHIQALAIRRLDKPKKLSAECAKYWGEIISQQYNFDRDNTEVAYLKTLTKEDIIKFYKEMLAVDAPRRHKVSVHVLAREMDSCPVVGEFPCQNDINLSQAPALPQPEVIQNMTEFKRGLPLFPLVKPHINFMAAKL
Protocol: A solution of 0.05 μg/mL IDE (R&D) in “Diluent #5” (CisBio, 24 μL) was transferred to a 200 μL tube strip, and combined with 1 μL of each inhibitor (10 mM in DMSO, or as a 3-fold dilution series). […] This procedure was optimized to result in ˜75% degradation of glucagon. The reaction was terminated by 1 μL of inhibitor Ii1 (5 μM) and chilled on ice. The remaining glucagon was quantified using 10 μL of the quenched enzymatic reaction using the sensitive-range protocol Homogeneous Time-Resolved FRET Glucagon assay (CisBio® 62GLCPEF, see FIG. 3) in 20 μL total volume according to the manufacturer's instructions (384 well-plate Greiner 784904 non-binding). Fluorescence was measured using a Tecan M1000Pro plate reader (excitation=340 nm, emission=665 and 620 nm, lag time=60 μs) according the assay manufacturer's recommendations. Blank wells and glucagon standard curve were included in the assay.
FIG. 4 compares the determined endpoint for insulin degradation with of glucagon degradation for a DMSO control, 6bK at 10 μM, and exemplary compounds of the invention at concentrations of 67 μM.
The HTRF endpoint assay for insulin and glucagon was performed over a range of concentrations for several potential inhibitors and for 6bK.

[2] = target: T2, IDE (R&D), substrate insulin (Homo sapiens, UniProt P14735); assay: HTRF endpoint assay for IDE-mediated degradation of insulin; type: biochemical; settings: HTRF endpoint assays for insulin and glucagon, FIG. 4; compounds 67 μM, 6bK 10 μM
T2 construct: recombinant human IDE42-1019 (R&D Systems); purchased R&D
T2 sequence (P14735 42-1019): T1 sequence (P14735 42-1019)
Protocol: A solution of 0.8 μg/mL IDE (R&D) in pH 7.5 buffer containing 20 mM HEPES, 135 mM NaCl (24 μL) was transferred to a 200 μL tube strip, and combined with 1 μL of each inhibitor (10 mM in DMSO, or as a 3-fold dilution series). A solution of insulin in “Assay Diluent” (CisBio, 25 μL) was added to a final concentration of 20 ng/mL, and incubated at 30° C. for 15 minutes. This procedure was optimized to result in ˜75% degradation of insulin. The reaction was terminated by adding 25 μL of inhibitor Ii1 (200 nM) and chilled on ice. The remaining insulin was quantified using 10 μL of the quenched enzymatic reaction using the sensitive-range protocol Homogeneous Time-Resolved FRET Insulin assay (CisBio® 62INSPEB, see FIG. 3) in 20 μL total volume according to the manufacturer's instructions (384 well-plate Greiner 784904 non-binding). Fluorescence was measured using a Tecan M1000Pro plate reader (excitation=320 nm, emission=665 and 620 nm, lag time=60 μs) according the assay manufacturer's recommendations. Blank wells and insulin standard curve were included in the assay.
FIG. 4 compares the determined endpoint for insulin degradation with of glucagon degradation for a DMSO control, 6bK at 10 μM, and exemplary compounds of the invention at concentrations of 67 μM. […]

| initial rates of glucagon cleavage [1] | SMILES | selectivity between insulin degradation and glucagon degradation [2] |
| --- | --- | --- |
| reduced | Cc1cccc(-c2ccc([C@@H]3[C@@H](CO)N4CCCCN(S(=O)(=O)c5ccccc5C)C[C@@H]34)cc2)c1 [compound 297] |  |
|  | NCCCC[C@@H]1NC(=O)/C=C/C(=O)N[C@H](C(N)=O)CCCCNC(=O)[C@@H](Cc2ccc(C(=O)c3ccccc3)cc2)NC(=O)[C@H](CC2CCCCC2)NC1=O [6bK, reference compound] | no selectivity |
